# Laboratory results reported in US20250163104A1, “MACROCYCLIC IMMUNOMODULATORS” (priority 2021, published 2025).
# Where a SMILES comes first, the peptide text is derived from it. Bridges are numbered along the chain shown (N, C = ends). [ ]: non-standard residue; d: D form. The star is where a group is joined. ξ: configuration not given here. Phe(4-COOH) = N[C@@H](Cc1ccc(C(=O)O)cc1)C(=O)O; Phe(4-CH2NH2) = NCc1ccc(C[C@H](N)C(=O)O)cc1; Bip = N[C@@H](Cc1ccc(-c2ccccc2)cc1)C(=O)O; Phe(3-Me) = Cc1cccc(C[C@H](N)C(=O)O)c1; Phe(4-Me) = Cc1ccc(C[C@H](N)C(=O)O)cc1; NMehArg = CN[C@@H](CCCCNC(=N)N)C(=O)O; Val(3-OH) = CC(C)(O)[C@H](N)C(=O)O; hArg = N=C(N)NCCCC[C@H](N)C(=O)O; 4Pal = N[C@@H](Cc1ccncc1)C(=O)O; Cha = N[C@@H](CC1CCCCC1)C(=O)O; Cit = NC(=O)NCCC[C@H](N)C(=O)O; Ile(3ξ) = CCC(C)[C@H](N)C(=O)O; Thr(3ξ) = CC(O)[C@H](N)C(=O)O; Tle = CC(C)(C)[C@H](N)C(=O)O; Carboxymethyl = O=C(O)C*; Orn = NCCC[C@H](N)C(=O)O; Dab = NCC[C@H](N)C(=O)O; Dap = NC[C@H](N)C(=O)O; ξV = CC(C)C(N)C(=O)O; ξS = NC(CO)C(=O)O
# Biological target: T1, human PD-1 / PD-L1-Ig binding on Jurkat cell line over-expressing human PD-1 (Jurkat-PD-1) (Homo sapiens, UniProt Q15116)
# T1 construct: expressed in transfected cells; host or cells: Jurkat
# Assay: Jurkat-PD-1 Cell Binding High-Content Screening Assay (CBA)
# Type: cell-based
# Conditions: Jurkat HPD1_PDL1 IC50, Jurkat-PD-1 cells, PE-labeled PD-L1-Ig 20 nM final
# How it was run: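 Jurkat-hPD-1 cells in DMEM with 10% fetal calf serum receive test compound and are held at 37° C for 2 h. PE-labeled PD-L1-Ig is added at 20 nM final and left for 1 hour. Cells are then fixed and Hoechst-stained, and binding is measured by imaging.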
# T1 sequence (Q15116 25-288): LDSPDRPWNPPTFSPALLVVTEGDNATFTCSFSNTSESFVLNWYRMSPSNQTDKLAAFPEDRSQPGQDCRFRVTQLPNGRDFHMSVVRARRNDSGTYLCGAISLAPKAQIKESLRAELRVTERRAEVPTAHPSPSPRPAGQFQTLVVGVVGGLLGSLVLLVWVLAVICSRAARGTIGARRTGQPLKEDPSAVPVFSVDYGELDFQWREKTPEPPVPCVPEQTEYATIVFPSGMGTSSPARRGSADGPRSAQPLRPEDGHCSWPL
row,SMILES,IC50
1,CC(C)C[C@H]1NC(=O)[C@H](CCCN)NC(=O)[C@H](CCCNC(N)=O)NC(=O)[C@H](Cc2ccc(-c3ccccc3)cc2)NC(=O)[C@H](C(C)C)NC(=O)[C@H](Cc2c[nH]c3ccccc23)NC(=O)[C@H](CC(=O)O)NC(=O)[C@H](Cc2ccc(C(=O)O)cc2)NC(=O)[C@H](Cc2ccc(OCC(=O)O)cc2)NC(=O)CSC[C@@H](C(=O)N[C@@H](C)C(N)=O)NC(=O)[C@H]([C@@H](C)O)NC(=O)[C@H](C(C)C)NC(=O)[C@H](CC2CCCCC2)NC(=O)[C@H](Cc2c[nH]cn2)NC1=O [Compound 1602],23.8 nM

# Same assay, conditions: Jurkat-PD-1 cells, PE-labeled PD-L1-Ig 20 nM final; read-out: Jurkat HPD1_PDL1 IC50
row,SMILES,IC50
1,CCC(C)[C@@H]1NC(=O)[C@H](Cc2ccc(-c3ccccc3)cc2)NC(=O)[C@H](Cc2ccc(C(=O)O)cc2)NC(=O)[C@H](Cc2cccc(C)c2)NC(=O)[C@H](CC(=O)O)NC(=O)[C@H](Cc2ccc(C(=O)O)cc2)NC(=O)[C@H](Cc2ccncc2)NC(=O)CSC[C@@H](C(=O)N[C@H](C)C(N)=O)NC(=O)[C@H](CCC(=O)O)NC(=O)[C@H](C(C)(C)O)NC(=O)[C@H](CC2CCCCC2)NC(=O)[C@H](CCN)NC(=O)[C@@H](CC(C)C)NC(=O)[C@H](Cc2cnc[nH]2)NC1=O (stereo partly drawn) [Compound 2666] ({CH2CO}-[4Pal][Phe(4-COOH)]D[Phe(3-Me)][Phe(4-COOH)][Bip][Ile(3ξ)]H[dL][Dab][Cha][Val(3-OH)]EC[dA]-NH2; thioether N-14),101 nM
2,Cc1ccc(C[C@@H]2NC(=O)[C@H](CN)NC(=O)CSC[C@@H](C(=O)N[C@@H](C)C(N)=O)NC(=O)[C@H]([C@@H](C)O)NC(=O)[C@H](C(C)C)NC(=O)[C@H](CC3CCCCC3)NC(=O)[C@H](CCN)NC(=O)[C@@H](CC(C)C)NC(=O)[C@H](CCCN)NC(=O)[C@H](CCCNC(N)=O)NC(=O)[C@H](Cc3ccc(-c4ccccc4)cc3)NC(=O)[C@H](C(C)C)NC(=O)[C@H](Cc3c[nH]c4ccccc34)NC(=O)[C@H](CC(=O)O)NC2=O)cc1 [Compound 2108] ({CH2CO}-[Dap][Phe(4-Me)]DWV[Bip][Cit][Orn][dL][Dab][Cha]VTCA-NH2; thioether N-14),19.9 nM
3,CC(C)C[C@H]1NC(=O)[C@H](CCCN)NC(=O)[C@H](CCCNC(N)=O)NC(=O)[C@H](Cc2ccc(-c3ccccc3)cc2)NC(=O)[C@H](C(C)(C)C)NC(=O)[C@H](Cc2c[nH]c3ccccc23)NC(=O)[C@H](CC(=O)O)NC(=O)[C@H](Cc2ccc(OCC(=O)O)cc2)NC(=O)[C@H](CN)NC(=O)CSC[C@@H](C(=O)N[C@@H](C)C(N)=O)NC(=O)[C@H]([C@@H](C)O)NC(=O)[C@H](C(C)C)NC(=O)[C@H](CC2CCCCC2)NC(=O)[C@H](CCN)NC1=O [Compound 1362] ({CH2CO}-[Dap]Y(Carboxymethyl)DW[Tle][Bip][Cit][Orn][dL][Dab][Cha]VTCA-NH2; thioether N-14),52.9 nM
4,CC(C)C[C@@H]1NC(=O)[C@H](CCN)NC(=O)[C@@H](CC(C)C)NC(=O)[C@H](CCCN)NC(=O)[C@H](C(C)C)NC(=O)[C@H](Cc2ccc(-c3ccccc3)cc2)NC(=O)[C@H](C(C)C)NC(=O)[C@H](Cc2c[nH]c3ccccc23)NC(=O)[C@H](CC(N)=O)NC(=O)[C@H](Cc2ccc(O)cc2)NC(=O)[C@H](CN)NC(=O)CSC[C@@H](C(=O)N[C@@H](C)C(N)=O)NC(=O)[C@H]([C@@H](C)O)NC(=O)[C@H](C(C)C)NC1=O [Compound 1087] ({CH2CO}-[Dap]YNWV[Bip]V[Orn][dL][Dab]LVTCA-NH2; thioether N-14),36.6 nM
5,Cc1cccc(C[C@@H]2NC(=O)[C@H](CC(=O)O)NC(=O)[C@H](Cc3ccc(C(=O)O)cc3)NC(=O)[C@H](Cc3ccncc3)NC(=O)CSC[C@@H](C(N)=O)NC(=O)[C@H](CO)NC(=O)[C@H](C(C)C)NC(=O)[C@H](CC3CCCCC3)NC(=O)[C@H](CCN)NC(=O)[C@@H](CC(C)C)NC(=O)[C@H](CCCN)NC(=O)[C@H](CCCNC(N)=O)NC(=O)[C@H](Cc3ccc(-c4ccccc4)cc3)NC(=O)[C@H](C(C)C)NC2=O)c1 [Compound 2268] ({CH2CO}-[4Pal][Phe(4-COOH)]D[Phe(3-Me)]V[Bip][Cit][Orn][dL][Dab][Cha]VSC-NH2; thioether N-14),26.8 nM

# The next lines start with the values.
row,IC50,SMILES
1,19.3 nM,CC(C)C[C@@H]1NC(=O)[C@H](CCCCN)NC(=O)[C@@H](CC(C)C)NC(=O)[C@H](CCN)NC(=O)[C@H](Cc2cnc[nH]2)NC(=O)[C@H](Cc2ccc(-c3ccccc3)cc2)NC(=O)[C@H](C(C)C)NC(=O)[C@H](Cc2c[nH]c3ccccc23)NC(=O)[C@H](CC(=O)O)NC(=O)[C@H](Cc2ccc(O)cc2)NC(=O)[C@H](CC(N)=O)NC(=O)CSC[C@@H](C(=O)N[C@@H](C)C(N)=O)NC(=O)[C@H](CO)NC(=O)[C@H](C(C)C)NC1=O [Compound 1138] ({CH2CO}-NYDWV[Bip]H[Dab][dL]KLVSCA-NH2; thioether N-14)
2,18 nM,CC(C)C[C@H]1NC(=O)[C@H](CCCN)NC(=O)[C@H](C(C)C)NC(=O)[C@H](Cc2ccc(-c3ccccc3)cc2)NC(=O)[C@H](C(C)C)NC(=O)[C@H](Cc2c[nH]c3ccccc23)NC(=O)[C@H](CC(=O)O)NC(=O)[C@H](Cc2ccc(OCC(=O)O)cc2)NC(=O)[C@H](CCCCNC(=N)N)N(C)C(=O)CSC[C@@H](C(=O)N[C@@H](C)C(N)=O)NC(=O)[C@H](CO)NC(=O)[C@H](C(C)C)NC(=O)[C@H](CC2CCCCC2)NC(=O)[C@H](CCN)NC1=O [Compound 2513] ({CH2CO}-[NMehArg]Y(Carboxymethyl)DWV[Bip]V[Orn][dL][Dab][Cha]VSCA-NH2; thioether N-14)
3,18 nM,COc1ccc(C[C@@H]2NC(=O)[C@H](CN)NC(=O)CSC[C@@H](C(=O)N[C@@H](C)C(N)=O)NC(=O)[C@H]([C@@H](C)O)NC(=O)[C@H](C(C)C)NC(=O)[C@H](CC3CCCCC3)NC(=O)[C@H](CCN)NC(=O)[C@@H](CC(C)C)NC(=O)[C@H](CCCN)NC(=O)[C@H](CCCNC(N)=O)NC(=O)[C@H](Cc3ccc(-c4ccccc4)cc3)NC(=O)[C@H](C(C)C)NC(=O)[C@H](Cc3c[nH]c4ccccc34)NC(=O)[C@H](CC(=O)O)NC2=O)cc1 [Compound 2112]
4,15.9 nM,CCC[C@@H]1NC(=O)[C@H](Cc2ccc(-c3ccccc3)cc2)NC(=O)[C@H](C(C)C)NC(=O)[C@H](Cc2cccc(C)c2)NC(=O)[C@H](CC(=O)O)NC(=O)[C@H](Cc2ccc(C(=O)O)cc2)NC(=O)[C@H](Cc2ccncc2)NC(=O)CSC[C@@H](C(=O)N[C@@H](C)C(N)=O)NC(=O)[C@H]([C@@H](C)O)NC(=O)[C@H](C(C)C)NC(=O)[C@H](CC2CCCCC2)NC(=O)[C@H](CCN)NC(=O)[C@@H](CC(C)C)NC(=O)[C@H](CCCN)NC1=O [Compound 1615]
5,15.7 nM,CC(C)C[C@H]1NC(=O)[C@H](CCCN)NC(=O)[C@H](CCCNC(N)=O)NC(=O)[C@H](Cc2ccc(-c3ccccc3)cc2)NC(=O)[C@H](C(C)C)NC(=O)[C@H](Cc2c[nH]c3ccccc23)NC(=O)[C@H](CC(=O)O)NC(=O)[C@H](Cc2ccc(CN)cc2)NC(=O)[C@H](CN)NC(=O)CSC[C@@H](C(=O)N[C@@H](C)C(N)=O)NC(=O)[C@H]([C@@H](C)O)NC(=O)[C@H](C(C)C)NC(=O)[C@H](CC2CCCCC2)NC(=O)[C@H](CCN)NC1=O [Compound 2098] ({CH2CO}-[Dap][Phe(4-CH2NH2)]DWV[Bip][Cit][Orn][dL][Dab][Cha]VTCA-NH2; thioether N-14)
6,15.3 nM,Cc1cccc(C[C@@H]2NC(=O)[C@H](CC(=O)O)NC(=O)[C@H](Cc3ccc(OCC(=O)O)cc3)NC(=O)[C@H](CCCCNC(=N)N)NC(=O)CSC[C@@H](C(=O)N[C@@H](CCCN)C(=O)NC(CO)C(N)=O)NC(=O)[C@H](CO)NC(=O)C(C(C)C)NC(=O)[C@H](CC3CCCCC3)NC(=O)[C@H](CCN)NC(=O)[C@@H](CC(C)C)NC(=O)[C@H](CCCN)NC(=O)[C@H](CCCNC(N)=O)NC(=O)[C@H](Cc3ccc(-c4ccccc4)cc3)NC(=O)[C@H](C(C)C)NC2=O)c1 (stereo partly drawn) [Compound 2592] ({CH2CO}-[hArg]Y(Carboxymethyl)D[Phe(3-Me)]V[Bip][Cit][Orn][dL][Dab][Cha][ξV]SC[Orn][ξS]-NH2; thioether N-14)
7,15 nM,CC(C)C[C@@H]1NC(=O)[C@H](CCN)NC(=O)[C@@H](CC(C)C)NC(=O)[C@H](CCCN)NC(=O)[C@H](C(C)C)NC(=O)[C@H](Cc2ccc(-c3ccccc3)cc2)NC(=O)[C@H](C(C)C)NC(=O)[C@H](Cc2c[nH]c3ccccc23)NC(=O)[C@H](CC(=O)O)NC(=O)[C@H](Cc2ccc(O)cc2)NC(=O)[C@H](CC(N)=O)NC(=O)CSC[C@@H](C(=O)N[C@@H](C)C(N)=O)NC(=O)[C@H](CO)NC(=O)[C@H](C(C)C)NC1=O [Compound 1127] ({CH2CO}-NYDWV[Bip]V[Orn][dL][Dab]LVSCA-NH2; thioether N-14)
8,8.5 nM,CC(C)C[C@H]1NC(=O)[C@H](CCCN)NC(=O)[C@H](C(C)C)NC(=O)[C@H](Cc2ccc(-c3ccccc3)cc2)NC(=O)[C@H](C(C)C)NC(=O)[C@H](Cc2c[nH]c3ccccc23)NC(=O)[C@H](CC(=O)O)NC(=O)[C@H](Cc2ccc(OCC(=O)O)cc2)NC(=O)[C@H](CCCNC(=N)N)NC(=O)CSC[C@@H](C(=O)N[C@@H](C)C(N)=O)NC(=O)[C@H](C(C)O)NC(=O)[C@H](C(C)C)NC(=O)[C@H](CC2CCCCC2)NC(=O)[C@H](CCN)NC1=O (stereo partly drawn) [Compound 2530] ({CH2CO}-RY(Carboxymethyl)DWV[Bip]V[Orn][dL][Dab][Cha]V[Thr(3ξ)]CA-NH2; thioether N-14)
9,8.3 nM,CC(C)C[C@H]1NC(=O)[C@H](CCCN)NC(=O)[C@H](C(C)C)NC(=O)[C@H](Cc2ccc(-c3ccccc3)cc2)NC(=O)[C@H](C(C)C)NC(=O)[C@H](Cc2c[nH]c3ccccc23)NC(=O)[C@H](CC(=O)O)NC(=O)[C@H](Cc2ccc(OCC(=O)O)cc2)NC(=O)[C@H](CN)NC(=O)CSC[C@@H](C(=O)N[C@@H](C)C(N)=O)NC(=O)[C@H](CN)NC(=O)[C@H](C(C)C)NC(=O)[C@H](CC2CCCCC2)NC(=O)[C@H](CCN)NC1=O [Compound 1738] ({CH2CO}-[Dap]Y(Carboxymethyl)DWV[Bip]V[Orn][dL][Dab][Cha]V[Dap]CA-NH2; thioether N-14)
